“And” between values parts separate entries of the source, which are not always exact repeats. Identical values can stand only once. Blank lines part the entries; values can stand above or below the molecule they belong to.
What was measured:
[1] = pKa of amine lipid by TNS fluorescence; type: physicochemical; conditions: probe TNS (6-(p-toluidino)-2-naphthalenesulfonic acid sodium salt), unformulated amine lipid in ethanol, sodium phosphate buffers -9.0
In short: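 pKa derived from a sigmoidal fit of normalized TNS fluorescence (321 nm excitation, 448 nm emission) versus pH. Lipid from ethanol stock diluted to about 100 μM final in 0.1 M phosphate buffers, pH 4.5–9.0.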

mouse TTR = assay: Serum TTR ELISA in mice after LNP delivery; type: in vivo
In short: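 Mouse TTR in serum was quantified by ELISA (samples diluted e.g. 10,000- and/or 2,500-fold) 6–7 days after dosing CD-1 females with LNP, typically 0.1 mpk. Values are reported relative to vehicle-treated controls (%).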

[2] = LNP average particle size and polydispersity by dynamic light scattering; type: physicochemical
In short: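 LNPs were diluted in PBS to a count rate of about 200-400 kcps and measured by DLS on a Zetasizer. Size is the intensity-weighted Z-average diameter, reported with number-average diameter, and the polydispersity index describes the spread of sizes around the mean.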

[3] = RNA encapsulation efficiency of LNP (Ribogreen fluorescence assay); type: physicochemical; conditions: for % E: Table 13, LNP sgRNA:Cas9 mRNA 1:2 w/w
In short: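 LNP samples diluted in 1× TE with or without 0.2% Triton-X 100 for total or free RNA, stained ~10 min at room temperature in the dark with RiboGreen; fluorescence ex 488/em 525 nm against RNA standard curves. Encapsulation efficiency = (Total RNA−Free RNA)/Total RNA.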

[4] = mouse serum, relative to TSS control of same experiment, dose 0.03 mpk
[5] = mouse serum, relative to TSS control of same experiment, dose 0.1 mpk
[6] = LNP with the compound as amine lipid, Expt. 3, composition ratio (mol %) 50/9/38/3 for Cmpnd 49, 50/10/38.5/1.5 for the others
[7] = Table 13, LNP sgRNA:Cas9 mRNA 1:2 w/w, N/P 6.0
[8] = LNP with the compound as amine lipid, Expt. 7, composition ratio (mol %) 50/9/38/3 for Cmpnd 49, 50/10/38.5/1.5 for the others
[9] = Table 3, guide G282, CD-1 female mice, 0.1 mpk i.v., Exp. 1, 8, 9, 10
[10] = Table 3, guide G282, CD-1 female mice, 0.1 mpk i.v., percentage of vehicle control (TSS)
[11] = LNP with the compound as amine lipid, Expt. 4, composition ratio (mol %) 50/9/38/3 for Cmpnd 49, 50/10/38.5/1.5 for the others
[12] = Table 6, LNP with G00282 sgRNA:Cas9 mRNA 1:1 w/w
[13] = LNP with the compound as amine lipid, Expt. 1, composition ratio (mol %) 50/9/38/3 for Cmpnd 49, 50/10/38.5/1.5 for the others
[14] = LNP with the compound as amine lipid, Expt. 8, composition ratio (mol %) 50/9/38/3 for Cmpnd 49, 50/10/38.5/1.5 for the others
[15] = Table 4, LNP with G00282 sgRNA:Cas9 mRNA 1:1 w/w, N/P 6.0
[16] = LNP with the compound as amine lipid, Expt. 10, composition ratio (mol %) 50/9/38/3 for Cmpnd 49, 50/10/38.5/1.5 for the others
[17] = LNP with the compound as amine lipid, Expt. 2, composition ratio (mol %) 50/9/39.5/3 for Cmpnd 49, 50/9/39.5/1.5 for the others
[18] = Table 10, LNP with G00534 sgRNA:Cas9 mRNA 1:2 w/w

pKa [1]: 6.25
Num Ave Size (nm) [2, 12]: 62.64 nm
PDI [2, 12]: 0.009
Z-Ave Size (nm) [2, 12]: 76.02 nm
Encapsulation (%) [3, 12]: 99%
Structure (SMILES): CCCCC/C=C\C/C=C\CCCCCCCC(=O)OCC(COC(=O)CCCCCCC/C=C\C/C=C\CCCCC)OC(=O)CCC(CCCCCCCCCCCC)OC(=O)OCCCN1CCCC1 (centres unmarked) [Compound 5, 2-((4-(((3-(pyrrolidin-1-yl)propoxy)carbonyl)oxy)hexadecanoyl)oxy)propane-1,3-diyl (9Z,9′Z,12Z,12′Z)-bis(octadeca-9,12-dienoate)]
Serum TTR (mouse TTR; Table 7, G00282, CD-1 female mice i.v., dose 0.1 mpk): 549 µg/mL
Serum TTR % TSS (mouse TTR; Table 7, G00282, CD-1 female mice i.v., dose 0.1 mpk, percentage of vehicle control): 67% TSS
Serum TTR (mouse TTR; Table 7, G00282, CD-1 female mice i.v., dose 0.3 mpk): 233 µg/mL
Serum TTR % TSS (mouse TTR; Table 7, G00282, CD-1 female mice i.v., dose 0.3 mpk, percentage of vehicle control): 28% TSS

pKa [1]: 6.35
Num Ave Size (nm) [2, 13]: 54.84 nm
PDI [2, 13]: 0.04
Z-Ave Size (nm) [2, 13]: 68.63 nm
Encapsulation (%) [3, 13]: 99%
Structure (SMILES): CCCCC/C=C\C/C=C\CCCCCCCC(=O)OCC(COC(=O)CCCCCCC/C=C\C/C=C\CCCCC)OC(=O)CCC(CCCCCCCCCCCC)OC(=O)OCCCN(C)C (centres unmarked) [Compound 1, 2-((4-(((3-(dimethylamino)propoxy)carbonyl)oxy)hexadecanoyl)oxy)propane-1,3-diyl (9Z,9′Z,12Z,12′Z)-bis(octadeca-9,12-dienoate)]
Serum TTR (mouse TTR; [9]): 671 µg/mL
Serum TTR % TSS (mouse TTR; [10]): 76% TSS
Serum TTR % TSS (mouse TTR; [5]): 48.49 % TSS

pKa [1]: 6.32
Num Ave Size (nm) [2, 14]: 48.82 nm
PDI [2, 14]: 0.074
Z-Ave Size (nm) [2, 14]: 64.83 nm
Num Ave Size (nm) [2, 15]: 59.99 nm
PDI [2, 15]: 0.033
Z-Ave Size (nm) [2, 15]: 74.83 nm
Encapsulation (%) [3, 14]: 98%
Encapsulation (%) [3, 15]: 97%
Structure (SMILES): CCCCC/C=C\C/C=C\CCCCCCCC(=O)OCC(COC(=O)CCCCCCC/C=C\C/C=C\CCCCC)OC(=O)CCC(CCCCCCCCCCCC)OC(=O)NCC1CCCN1C (centres unmarked) [Compound 9, 2-((4-((((1-methylpyrrolidin-2-yl)methyl)carbamoyl)oxy)hexadecanoyl)oxy) propane-1,3-diyl (9Z,9′Z,12Z,12′Z)-bis(octadeca-9,12-dienoate)]
Serum TTR (mouse TTR; [9]): 339 µg/mL
Serum TTR % TSS (mouse TTR; [10]): 38% TSS
Serum TTR % TSS (mouse TTR; [4]): 114.02 % TSS
Serum TTR % TSS (mouse TTR; [5]): 103.19 % TSS

More lines, now with the values behind:

Structure (SMILES): CCCCC/C=C\C/C=C\CCCCCCCC(=O)OCC(COC(=O)CCCCCCC/C=C\C/C=C\CCCCC)OC(=O)CCC(CCCCC)OC(=O)NCCN1CCCC1 (centres unmarked) [Compound 72, 2-((4-(((2-(pyrrolidin-1l-yl)ethyl)carbamoyl)oxy)nonanoyl)oxy)propane-1,3-diyl (9Z,9′Z,12Z,12′Z)-bis(octadeca-9,12-dienoate)]
pKa [1]: 7.01
Serum TTR % TSS (mouse TTR; [4]): 66.92 % TSS
Serum TTR % TSS (mouse TTR; [5]): 26.43 % TSS
Num Ave Size (nm) [2, 6]: 88.38 nm
PDI [2, 6]: 0.02
Z-Ave Size (nm) [2, 6]: 106.80 nm
Number Average [nm] [2, 7]: 91.47 nm
PDI [2, 7]: 0.018
Z-Ave Size (nm) [2, 7]: 111.4 nm
Encapsulation (%) [3, 6]: 98%
% E ([3]; N/P 6.0): 94%

Structure (SMILES): CCCCC/C=C\C/C=C\CCCCCCCC(=O)OCC(COC(=O)CCCCCCC/C=C\C/C=C\CCCCC)OC(=O)CCC(CCCCCCCC)OC(=O)OCCCN1CCCC1 (centres unmarked) [Compound 36, 2-((4-(((3-(pyrrolidin-1-yl)propoxy)carbonyl)oxy)dodecanoyl)oxy)propane-1,3-diyl (9Z,9′Z,12Z,12′Z)-bis(octadeca-9,12-dienoate)]
pKa [1]: 6.13
Serum TTR % TSS (mouse TTR; [4]): 75.785 % TSS
Serum TTR % TSS (mouse TTR; [5]): 43.824 % TSS
Num Ave Size (nm) [2, 8]: 58.34 nm
PDI [2, 8]: 0.058
Z-Ave Size (nm) [2, 8]: 75.9 nm
Encapsulation (%) [3, 8]: 98%

Structure (SMILES): CCCCC/C=C\C/C=C\CCCCCCCC(=O)OCC(COC(=O)CCCCCCC/C=C\C/C=C\CCCCC)OC(=O)CCC(CCCCCC)OC(=O)NCCN(C)CC (centres unmarked) [Compound 40, 2-((4-(((2-(ethyl(methyl)amino)ethyl)carbamoyl)oxy)decanoyl)oxy)propane-1,3-diyl (9Z,9′Z,12Z,12′Z)-bis(octadeca-9,12-dienoate)]
pKa [1]: 6.34
Serum TTR (mouse TTR; [9]): 251 µg/mL
Serum TTR % TSS (mouse TTR; [10]): 31% TSS
Serum TTR % TSS (mouse TTR; [4]): 77% TSS
Serum TTR % TSS (mouse TTR; [5]): 9% TSS
Num Ave Size (nm) [2, 11]: 81.51 nm
PDI [2, 11]: 0.027
Z-Ave Size (nm) [2, 11]: 101.10 nm
Encapsulation (%) [3, 11]: 97%

Structure (SMILES): CCCCC/C=C\C/C=C\CCCCCCCC(=O)OCC(COC(=O)CCCCCCC/C=C\C/C=C\CCCCC)OC(=O)CCC(CCCCCCCC)OC(=O)NCCN1CCCC1 (centres unmarked) [Compound 51, 2-((4-(((2-(pyrrolidin-1-yl)ethyl)carbamoyl)oxy)dodecanoyl)oxy)propane-1,3-diyl (9Z,9′Z,12Z,12′Z)-bis(octadeca-9,12-dienoate)]
pKa [1]: 6.37
Serum TTR % TSS (mouse TTR; [5]): 9.32 % TSS
Num Ave Size (nm) [2, 6]: 80.57 nm
PDI [2, 6]: 0.02
Z-Ave Size (nm) [2, 6]: 96.78 nm
Num Ave Size (nm) [2, 16]: 82 nm
PDI [2, 16]: 0.02
Z-Ave Size (nm) [2, 16]: 98 nm
Number Average [nm] [2, 7]: 80 nm
PDI [2, 7]: 0.009
Z-Ave Size (nm) [2, 7]: 97.21 nm
Encapsulation (%) [3, 6]: 98%
Encapsulation (%) [3, 16]: 98%
% E ([3]; N/P 6.0): 98%

Structure (SMILES): CCCCC/C=C\C/C=C\CCCCCCCC(=O)OCC(COC(=O)CCCCCCC/C=C\C/C=C\CCCCC)OC(=O)CCC(CCCCCC)OC(=O)OCCCN1CCCC1 (centres unmarked) [Compound 45, 2-((4-(((3-(pyrrolidin-1-yl)propoxy)carbonyl)oxy)decanoyl)oxy)propane-1,3-diyl (9Z,9′Z,12Z,12′Z)-bis(octadeca-9,12-dienoate)]
pKa [1]: 5.79
Serum TTR % TSS (mouse TTR; mouse serum, relative to TSS control of same experiment, dose 0.03 mpk, 0.03 mg/kg): 78.39 % TSS and 43.435 % TSS
Serum TTR % TSS (mouse TTR; [5]): 10.09 % TSS
Num Ave Size (nm) [2, 17]: 85.54 nm
PDI [2, 17]: 0.021
Z-Ave Size (nm) [2, 17]: 102.70 nm
Num Ave Size (nm) [2, 8]: 77.92 nm
PDI [2, 8]: 0.012
Z-Ave Size (nm) [2, 8]: 95.26 nm
Num Avg Size (nm) [2, 18]: 83.48 nm
PDI [2, 18]: 0.052
Z-Avg Size (nm) [2, 18]: 101.00 nm
Encapsulation (%) [3, 17]: 99%
Encapsulation (%) [3, 8]: 98%
Encapsulation (%) [3, 18]: 95%
